# Key:
# duck salad = test: Test C flooded paddy test; assay type: in vivo, Heteranthera limosa; settings: Flood
# Outline: (§1)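 In-water treatment: compound dosed into 3 cm flood over soil, water level unchanged throughout. Controls run alongside; visual assessment at day 13–15.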
# velvetleaf [1] = test: Test C pre-/postemergence test; assay type: in vivo, Abutilon theophrasti; settings: Preemergence
# Outline: (§2)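 Seeds were planted and treated preemergence with test chemical in a non-phytotoxic solvent mixture containing surfactant. Postemergence applications of the same formulation went onto plants 2 to 18 cm tall (1- to 4-leaf stage). A dash marks no test result.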
# common ragweed = test: Test C pre-/postemergence test; assay type: in vivo, Ambrosia elation; settings: Preemergence
# Outline: as §2
# johnsongrass = test: Test C pre-/postemergence test; assay type: in vivo, Sorghum halepense; settings: Preemergence
# Outline: as §2
# bermudagrass = test: Test C pre-/postemergence test; assay type: in vivo, Cynodon dactylon
# Outline: as §2
# corn = test: Test A pre-/postemergence greenhouse test; assay type: in vivo, Zea mays; settings: for Corn plant response rating: 0 to 100 scale
# Outline: (§3)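 Visual injury ratings, made relative to untreated controls roughly ten days after treatment, cover both preemergence and postemergence application. Compounds in a surfactant-containing non-phytotoxic solvent were sprayed onto the soil surface after sowing and, simultaneously, onto young plants at the one- to two-leaf stage.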
# giant foxtail [2] = test: Test A pre-/postemergence greenhouse test; assay type: in vivo, Setaria faberi; settings: for Foxtail, Giant plant response rating: 0 to 100 scale
# Outline: as §3
# barnyardgrass = test: Test C flooded paddy test; assay type: in vivo, Echinochloa crus-galli; settings: Flood
# Outline: as §1
# Goosegrass = test: Test C pre-/postemergence test; assay type: in vivo, Eleusin indica; settings: Preemergence
# Outline: as §2
# rice = test: Test C flooded paddy test; assay type: in vivo, Oryza sativa; settings: Flood
# Outline: as §1
# redroot pigweed = test: Test A pre-/postemergence greenhouse test; assay type: in vivo, Amaranthus retroflexus; settings: for Pigweed plant response rating: 0 to 100 scale
# Outline: as §3
# wheat = test: Test A pre-/postemergence greenhouse test; assay type: in vivo, Triticum aestivum; settings: for Wheat plant response rating: 0 to 100 scale
# Outline: as §3
# eastern black nightshade = test: Test C pre-/postemergence test; assay type: in vivo, Solanum ptycanthum; settings: Preemergence
# Outline: as §2
# velvetleaf [3] = test: Test A pre-/postemergence greenhouse test; assay type: in vivo, Abutilon theophrasti; settings: for Velvetleaf plant response rating: 0 to 100 scale
# Outline: as §3
# wild oat = test: Test C pre-/postemergence test; assay type: in vivo, Avena fatua; settings: Preemergence
# Outline: as §2
# lambsquarters = test: Test C pre-/postemergence test; assay type: in vivo, Chenopodium album; settings: 62 g ai/ha, Preemergence; scale 0 to 100
# Outline: as §2
# giant foxtail [4] = test: Test C pre-/postemergence test; assay type: in vivo, Setaria faberii; settings: Preemergence
# Outline: as §2
# Surinam grass = test: Test C pre-/postemergence test; assay type: in vivo, Brachiaria decumbens; settings: Preemergence
# Outline: as §2
# [5] = 31 g ai/ha, scale 0 to 100 (0 no effect, 100 complete control)
# [6] = 62 g ai/ha, scale 0 to 100, 0 no effect, 100 complete control, 13 to 15 days
# [7] = 125 g ai/ha, scale 0 to 100, 0 no effect, 100 complete control, 13 to 15 days
# [8] = 250 g ai/ha, scale 0 to 100 (0 no effect, 100 complete control)
# [9] = Postemergence, 125 g ai/ha, 0 is no effect, 100 is complete control
# [10] = Postemergence, 500 g ai/ha, 0 is no effect, 100 is complete control
# [11] = Preemergence, 125 g ai/ha, 0 no effect, 100 complete control
# [12] = Preemergence, 500 g ai/ha, 0 to 100 scale where 0 is no effect and 100 is complete control
smiles,measurement,setting,value
Cn1nc(C(F)(F)F)c(CS(=O)(=O)c2cc(C(C)(C)C)cc[n+]2[O-])c1OC(F)F [Compound 25],"Plant response rating, Ducksalad",duck salad; [5],0
same,"Plant response rating, Ducksalad",duck salad; [6],40
same,"Plant response rating, Ducksalad",duck salad; [7],60
same,"Plant response rating, Ducksalad",duck salad; [8],80
same,Velvetleaf plant response rating,"velvetleaf [1]; 62 g ai/ha, scale 0 to 100",80
same,"Plant response rating, Velvetleaf",velvetleaf [1]; [5],20
same,Ragweed plant response rating,"common ragweed; 62 g ai/ha, scale 0 to 100",10
same,"Plant response rating, Ragweed",common ragweed; [5],0
same,Johnsongrass plant response rating,"johnsongrass; 62 g ai/ha, scale 0 to 100",98
same,"Plant response rating, Johnsongrass",johnsongrass; [5],70
same,"Plant response rating (0 to 100), Johnsongrass",johnsongrass; 250 g ai/ha,100
same,Bermudagrass plant response rating,"bermudagrass; 62 g ai/ha, Preemergence, scale 0 to 100 (0 no effect, 100 complete control)",100
same,"Plant response rating, Bermudagrass","bermudagrass; Preemergence, 31 g ai/ha, scale 0 to 100 (0 no effect, 100 complete control)",75
same,"Plant response rating (0 to 100), Bermudagrass","bermudagrass; Preemergence, 250 g ai/ha",100
same,Bermudagrass plant response rating,"bermudagrass; preemergence, 125 g ai/ha, scale 0 (no effect) to 100 (complete control)",100
same,Corn plant response rating,corn; [9],0
same,Corn plant response rating,corn; [10],20
same,Corn plant response rating,corn; [11],0
same,"Plant response rating, Corn",corn; [12],60
same,"Foxtail, Giant plant response rating",giant foxtail [2]; [9],30
same,"Foxtail, Giant plant response rating",giant foxtail [2]; [10],70
same,"Foxtail, Giant plant response rating",giant foxtail [2]; [11],100
same,"Plant response rating, Foxtail, Giant",giant foxtail [2]; [12],100
same,"Plant response rating, Barnyardgrass",barnyardgrass; [5],0
same,"Plant response rating, Barnyardgrass",barnyardgrass; [6],0
same,"Plant response rating, Barnyardgrass",barnyardgrass; [7],30
same,"Plant response rating, Barnyardgrass",barnyardgrass; [8],80
same,Goosegrass plant response rating,"Goosegrass; 62 g ai/ha, scale 0 to 100",100
same,"Plant response rating, Goosegrass",Goosegrass; [5],100
same,"Plant response rating (0 to 100), Goosegrass",Goosegrass; 250 g ai/ha,100
same,"Plant response rating, Rice",rice; [5],0
same,"Plant response rating, Rice",rice; [6],0
same,"Plant response rating, Rice",rice; [7],65
same,"Plant response rating, Rice",rice; [8],75
same,Pigweed plant response rating,redroot pigweed; [9],30
same,Pigweed plant response rating,redroot pigweed; [10],40
same,Pigweed plant response rating,redroot pigweed; [11],100
same,"Plant response rating, Pigweed",redroot pigweed; [12],100
same,Wheat plant response rating,wheat; [9],0
same,Wheat plant response rating,wheat; [10],40
same,Wheat plant response rating,wheat; [11],40
same,"Plant response rating, Wheat",wheat; [12],60
same,Nightshade plant response rating,"eastern black nightshade; 62 g ai/ha, scale 0 to 100",100
same,"Plant response rating, Nightshade",eastern black nightshade; [5],100
same,Velvetleaf plant response rating,velvetleaf [3]; [9],30
same,Velvetleaf plant response rating,velvetleaf [3]; [10],50
same,Velvetleaf plant response rating,velvetleaf [3]; [11],60
same,"Plant response rating, Velvetleaf",velvetleaf [3]; [12],100
same,"Oat, Wild plant response rating","wild oat; 62 g ai/ha, scale 0 to 100",85
same,"Plant response rating, Oat, Wild",wild oat; [5],0
same,Lambsquarters plant response rating,lambsquarters,60
same,"Foxtail, Giant plant response rating","giant foxtail [4]; 62 g ai/ha, scale 0 to 100",85
same,"Plant response rating, Foxtail, Giant",giant foxtail [4]; [5],40
same,Surinam Grass plant response rating,"Surinam grass; 62 g ai/ha, scale 0 to 100",50
same,"Plant response rating, Surinam Grass",Surinam grass; [5],0

# — patent US20100298141A1, “SUBSTITUTED PYRIDINE N-OXIDE HERBICIDES” (E. I. DU PONT DE NEMOURS AND COMPANY, priority 2007, published 2010)
